Laboratory results: patent US20090253778A1, “DNA composition against tumor stromal antigen FAP and methods of use thereof” (priority 2006, published 2009)
One block for each compound: values may come before it.

Experiments:
[1] = tested on: D2F2 breast carcinoma cells; assay: nuclear apoptosis by Hoechst-33342 dye staining in resistant D2F2 cells; format: cell-based, Murine
Experimental: (§1) Murine CT26 and D2F2 carcinoma cells were cultured in the presence of either 1% DMSO, etoposide, 5-fluorouracil, doxorubicin, vinblastine or paclitaxel (Sigma, St. Louis, Mo.) at the concentrations indicated. After 48 hours, apoptotic nuclei were counted after incubation with the DNA-specific Hoechst-33342 dye (2 μM; Molecular Probes, Eugene, Oreg.).
(§2) Two clones of CT26 colon cancer and D2F2 breast cancer cells, respectively, have acquired chemoresistance (see FIG. 1, Panel C).

[2] = tested on: D2F2 breast carcinoma cells; assay: prophylactic setting, orthotopic D2F2 tumor growth, with or without doxorubicin; format: in vivo, BALB/c mice
Experimental: Oral immunization, tumor cell challenge and treatment with doxorubicin. […] Med., 2002, 8: 1369-1375. Animals were challenged about 10 days later by subcutaneous (s.c.) injection of about 3×10^4 CT26 colon carcinoma cells in the left front flank or by orthotopic (o.t.) injection of about 3×10^5 D2F2 breast cancer cells in the left, second lowest mammary fat pad.
Tumor volume (in mm^3) was calculated by measuring the tumor in 2 dimensions (i.e., length and width, in millimeters) and calculating the volume as one half the length times the square of the width. In the therapeutic setting, the initial tumor cell inoculation was by intravenous (i.v.) injection of about 1×10^5 CT26 colon carcinoma cells followed about 3 and 10 days later by oral vaccinations with control vaccine or active DNA compositions. After about 18 days, the lungs were weighed (normal lung weight was about 0.2 g) and pulmonary tumor metastases were examined and scored by visual evaluation assessing the percentage of lung surface covered by fused metastases as follows: score of 0 for 0% coverage, score of 1 for less than about 20% coverage, score of 2 for about 20-50% coverage, score of 3 for greater than about 50% of lung surface covered. Treatment with doxorubicin was performed in groups of mice with about 10 mg/kg doxorubicin (Sigma) administered i.v., 5, 10 and 15 days after tumor challenge. […]

[3] = tested on: CT26 colon carcinoma cells; assay: nuclear apoptosis by Hoechst-33342 dye staining in chemoresistant CT26 clone; format: cell-based, Murine; conditions: resistant CT26 clone, 48 hours
Experimental: as §1, §2

[4] = tested on: parent CT26 cell line (ATCC #CLR-2326); assay: IC50 in original parent CT26 cell line; format: cell-based, Murine; conditions: Mus musculus
Description: as §2

Compound: COc1cccc2c1C(=O)c1c(O)c3c(c(O)c1C2=O)C[C@@](O)(C(=O)CO)C[C@@H]3O[C@H]1C[C@H](N)[C@H](O)[C@H](C)O1 [doxorubicin]
sensitivity of D2F2 cells ([1]; FIG. 1, Panel C): partially sensitive
nuclear apoptosis (Hoechst-33342 dye staining) ([1]; resistant D2F2 cells, 48 hours, highest concentration of 1 μM): able to induce nuclear apoptosis
tumor growth ([2]; orthotopic D2F2, doxorubicin or PBS 5, 10 and 15 days after challenge): only able to suppress, but not eradicate tumor growth
complete rejection of tumors ([2]; single agent alone): not observed

Compound: CC[C@]1(O)C[C@@H]2CN(CCc3c([nH]c4ccccc34)[C@@](C(=O)OC)(c3cc4c(cc3OC)N(C)[C@H]3[C@@](O)(C(=O)OC)[C@H](OC(C)=O)[C@]5(CC)C=CCN6CC[C@]43[C@@H]65)C2)C1 [vinblastine]
nuclear apoptosis (Hoechst-33342 dye staining) ([3]; only at 5 μM): slight apoptotic effect

IC50 [4]: ~1850 nM
Compound: O=c1[nH]cc(F)c(=O)[nH]1 [5-FU, 5-fluorouracil]
nuclear apoptosis (Hoechst-33342 dye staining) ([3]; concentration as high as 100 μM): not able to induce nuclear apoptosis
